# Laboratory results published in patent publication US8951500B2, “13C-MR imaging or spectroscopy of cell death” (GE Healthcare AS, priority 2006, dated 2015).
# Assays:
# [1] = tested on: EL-4 murine lymphoma cells; assay: 31P-NMR measurements on acid-extracts of EL-4 cells induced to undergo cell death; type: cell-based
# Source text: Loss of NAD(H) can be explained by DNA-damage induced activation of the enzyme poly-ADP-ribose polymerase (PARP), which […] various proteins and uses NAD^+ as a substrate.
# [2] = tested on: EL4 murine lymphoma cells; assay: 13C-MR spectroscopy of hyperpolarised 13C-label flux between pyruvate and lactate in EL4 cell suspensions; type: cell-based; conditions: co-treatment of cells with the cell death inducer
# Description: EL4 murine lymphoma cells (10^8 cells) were treated with 15 μM etoposide (PCH Pharmachemie BV, Harleem), a compound which is known to induce cell death after 16 h exposure. A separate set of cells was treated for 16 hours with 15 μM etoposide plus 20 mM nicotinamide, a known PARP inhibitor. Cell death (apoptosis and necrosis) was confirmed by acridine orange and propidium iodide staining. The cells were washed 3 times with RPMI 1640 growth medium containing 10% FCS at 37° C. and to 2 ml of the etoposide- and etoposide/nicotinamide treated EL4 cell suspension 2 ml of the imaging medium according to Example 5 were added. The final cell suspension thus contained 30 mM hyperpolarised ^13C1-pyruvate and 37.5 mM lactate.
# ^13C-signal intensities from ^13C-pyruvate and ^13C-lactate in etoposide-treated EL4 cell suspensions as described in 6.1 were followed over a time period of 240 seconds from the time of addition of the imaging medium. […]
# ^13C-signal intensities from ^13C-pyruvate and ^13C-lactate in etoposide-treated and etoposide/nicotinamide treated EL4 cell suspensions as described in 6.1 were followed over a time period of 240 seconds from the time of addition of the imaging medium. […] The data were fit to a two-site exchange model based on the modified Bloch equations, and the rate constants for the forward and reverse exchange ^13C-fluxes were determined. […]
# [3] = T1 relaxation of 13C1-pyruvate in human full blood; type: physicochemical; conditions: human full blood at 37° C.
# Source text: The amount of alanine, bicarbonate and lactate is dependent on the metabolic status of the tissue under investigation.
# The isotopic enrichment of the hyperpolarised ^13C-pyruvate used in the method of the invention is preferably at least 75%, more preferably at least 80% and especially preferably at least 90%, an isotopic enrichment of over 90% being most preferred. Ideally, the enrichment is 100%. ^13C-pyruvate used in the method of the invention may be isotopically enriched at the C1-position (in the following denoted ^13C1-pyruvate), at the C2-position (in the following denoted ^13C2-pyruvate), at the C3-position (in the following denoted ^13C3-pyruvate), at the C1- and the C2-position (in the following denoted ^13C1,2-pyruvate), at the C1- and the C3-position (in the following denoted ^13C1,3-pyruvate), at the C2- and the C3-position (in the following denoted ^13C2,3-pyruvate) or at the C1-, C2- and C3-position (in the following denoted ^13C1,2,3-pyruvate). Isotopic enrichment at the C1-position is preferred since ^13C1-pyruvate has a higher T1 relaxation in human full blood at 37° C. (about 42 s) than ^13C-pyruvate which is isotopically enriched at other C-positions.
# EL-4 tumour [4] = assay: Tumour cell death (histology) and tumour volume (1H spin echo images) in EL4 lymphoma-bearing mice; type: in vivo
# EL-4 tumour [5] = assay: 1H NMR measurements on perchloric acid-extracts of freeze-clamped tumours; type: in vivo, mice; conditions: etoposide-treated tumours, extracts made immediately after MR experiments, n=8
# Description: The data were collected 20 h after treatment of the animals with etoposide. […] These extracts were made immediately following completion of the MR experiments.
# EL-4 tumour [6] = assay: In vivo 13C-MR spectroscopy of pyruvate-lactate label flux in EL4 tumours after i.v. hyperpolarised 13C1-pyruvate
# Description: (§1) Lymphoma tumours were produced in mice by subcutaneous implantation of EL4 cells. The mice were treated with an i.p. injection of 67 mg/kg etoposide. Tumour cell death following etoposide treatment was assessed histologically. Non-etoposide treated mice were used as control.
# (§2) The time-dependent changes in the tumour signals from lactate and pyruvate were fit to the exchange model to obtain the apparent rate constants, and spin lattice relaxation times (FIG. 3B). The first 10-15 s of data acquisition were lost since this was the time taken to complete the injection and insert the ^13C surface coil probe assembly, containing the animal, into the imaging magnet.
# (§3) The data were collected 20 h after treatment of the animals with etoposide. The increased SDs after 40 s reflect the decrease in signal-to-noise on the lactate and pyruvate resonances resulting from the loss of polarisation. […] These extracts were made immediately following completion of the MR experiments.
# (§4) In another series of experiments, animals were etoposide-treated 24 h after imaging and then 24 h after etoposide treatment a second set of images were acquired, thus each animal could serve as its own control. However, as with the other experiments, there was little variation within the groups and the group results are presented.
# LDH = assay: Enzyme activity measurements on protein extracts from freeze-clamped tumours; type: in vivo, mice; conditions: drug-treated tumours, n=3
# EL-4 tumour [7] = tested on: EL-4 tumour
# Description: as §1, §2, §3, §4
# [8] = etoposide-treated EL-4 cells compared to untreated control cells
compound,measurement,setting,value
NC(=O)c1cccc(N)c1 [3-aminobenzamide],effect of PARP inhibition on loss of NAD(H) and increase in FBP concentration in dying cells,[1]; 10 mM 3-aminobenzamide,inhibited the loss of NAD(H) and the increase in FBP concentration
same,ability to transfer hyperpolarised 13C-label between pyruvate and lactate pools,[2],maintained their ability to transfer the hyperpolarised ^13C-label between the pyruvate and lactate pools
CC(=O)C(=O)O [^13C1-pyruvate],T1 relaxation,[3],about 42 s
COc1cc([C@@H]2c3cc4c(cc3[C@@H](O[C@@H]3O[C@@H]5CO[C@@H](C)O[C@H]5[C@H](O)[C@H]3O)[C@H]3COC(=O)[C@H]23)OCO4)cc(OC)c1O [etoposide],cell death,"EL-4 tumour [4]; 24 h after drug treatment, 67 mg/kg i.p., n=3",37.0±3.8%
same,tumour volume,"EL-4 tumour [4]; treated tumours, multi-slice 1H spin echo images, n=8",1.3±0.2 cm^3
same,intensity of the resonances from NAD(H),[1]; [8],a decrease in the intensity of the resonances from NAD(H)
same,"resonances from fructose-1,6-bisphosphate (FBP)",[1]; [8],"an increase in the resonances from the glycolytic intermediate, fructose-1,6-bisphosphate (FBP)"
same,lactate/pyruvate ratio by 1H NMR,EL-4 tumour [5],5.1±2.0
same,rate constant kP^app,"EL-4 tumour [6]; etoposide-treated tumours, 20 h after treatment, n=8",0.056 ± 0.005 s⁻¹
same,calculated equilibrium lactate/pyruvate ratio (L∞/P∞),"EL-4 tumour [6]; etoposide-treated tumours, n=8",2.7±0.4
same,decrease in the rate constant kP^app,"EL-4 tumour [6]; versus control tumours, data collected 20 h after treatment",approximately 25%
same,LDH activity,LDH,100±20 units/g wet wt.
same,decrease in flux,"EL-4 tumour [7]; following versus before treatment, n=4",39%
same,rate constant,"EL-4 tumour [7]; iv, 24 h",0.040 ± 0.012 s⁻¹
NC(=O)c1cccnc1 [nicotinamide],effect of PARP inhibition on loss of NAD(H) and increase in FBP concentration in dying cells,[1]; 20 mM nicotinamide,inhibited the loss of NAD(H) and the increase in FBP concentration
same,ability to transfer hyperpolarised 13C-label between pyruvate and lactate pools,[2],maintained their ability to transfer the hyperpolarised ^13C-label between the pyruvate and lactate pools
